Test results published in patent publication US8993527B2, “Methods, compositions, and formulations for preventing or reducing adverse effects in a patient” (Pericor Therapeutics, Inc., priority 2005, dated 2015).
Each block holds one molecule with its values, some of them ahead of it.

Assays:
[1] = tested on: patients undergoing coronary artery bypass surgery; experiment: Aspirin within 48 hours of revascularization: prospective study of CABG patients; type: in vivo
From the text: A prospective, longitudinal study enrolled 5,436 patients. Eligible patients included those with medically-refractory coronary artery disease and scheduled for coronary artery bypass surgery at 70 medical institutions among 17 countries in North and South America, Europe, the Middle East and Asia. At each institution, 100 patients were to be prospectively enrolled according to a systematic sampling scheme that allowed a random sampling of patients at each institution among all patients undergoing surgery at that institution.
Of the 5,436 patients enrolled, 5,065 patients completed the study and were included in the final analysis. Of the 371 patients excluded, 32 were excluded due to patient withdrawal, 2 due to death prior to surgery, 97 due to cancellation or rescheduling of surgery, 132 patients due to change in procedure, 11 due to inadvertent enrollment in another study, 86 due to incomplete data and 11 due to incomplete blood sampling, shipping or storage.
Aspirin was administered in doses of 160 mg to 650 mg to 3,001 patients within 48 hours of revascularization. All potential side-effects associated with aspirin use were recorded daily by blinded investigators. Independent investigators coded all medications received-including pro- and anti-thrombotic and pro- and anti-coagulant medications, and blood products—by day throughout hospitalization, as well as at admission and at discharge, or until death.
For each enrolled patient, approximately 7,500 fields of data were collected throughout the patient's index hospitalization, from admission until discharge, by independent investigators; treated physicians were blinded to all research data. Data included demographic, historical, clinical, laboratory, eloectrocardiographic, specialized testing, resource utilization, and adverse outcomes. Following last patient enrollment, all data fields for each patient were queried centrally for completeness and accuracy, with all changes documented prior to database closure.
All outcomes were prespecified, defined by protocol, and discerned by investigators blinded to treatment group. Fatal and non-fatal outcomes were classified as cardiac (myocardial infarction, congestive heart failure and cardiac death), cerebral (stroke, encephalopathy and cerebral death), renal (dysfunction, failure and renal death), gastrointestinal (ischemia, infarction and GI death), or other (such as infectious, pulmonary). The diagnosis of myocardial infarction required either: the development of new Q waves (as defined by Minnesota Code 1-1-1I or 1I-2-7); or new persistent S T-segment or T-wave changes (Minnesota Code 4-1, 4-2, 5-1 or 5-2) associated with an elevation of CK-MB isoenzyme values; or autopsy evidence of acute myocardial infarction. The diagnosis of heart failure required either: the use of a ventricular assist device; or the use of continuous inotropic support for at least 24 hours; or autopsy evidence of heart failure. Cerebral outcomes were classified as: clinically diagnosed stroke or encephalopathy; or CT, MRI or autopsy evidence of a focal or global defect. Renal dysfunction was defined as: a serum creatinine ≧177 μmol/L accompanied by a ≧62 μmol/L rise over baseline; and renal failure was defined as dysfunction requiring dialysis, or autopsy evidence of renal failure. Gastrointestinal ischemia was defined as abdominal pain diagnosed as intestinal ischemia, or detected at exploration; infarction required bowel resection, or autopsy evidence of intestinal infarction.
The risk of death for aspirin taking versus control populations were compared using the Chi-Square test. Individual ischemic outcomes involving the heart, brain, kidney and gastrointestinal tract, and combined ischemic outcomes were compared using Fisher's Exact Test or the Chi-Square test as appropriate. Odds ratios and the 95% confidence intervals are presented with associated P values. […]

[2] = target: T1, NBTI-specific adenosine transport site (UniProt O54698); experiment: [3H]-NBTI binding assay; details: read-out: ED50 (50% displacement of bound [3H]-NBTI); 0.5 mg neuronal membrane protein, 0.5 nM [3H]-NBTI, 30 minutes
T1 sequence (O54698 1-457): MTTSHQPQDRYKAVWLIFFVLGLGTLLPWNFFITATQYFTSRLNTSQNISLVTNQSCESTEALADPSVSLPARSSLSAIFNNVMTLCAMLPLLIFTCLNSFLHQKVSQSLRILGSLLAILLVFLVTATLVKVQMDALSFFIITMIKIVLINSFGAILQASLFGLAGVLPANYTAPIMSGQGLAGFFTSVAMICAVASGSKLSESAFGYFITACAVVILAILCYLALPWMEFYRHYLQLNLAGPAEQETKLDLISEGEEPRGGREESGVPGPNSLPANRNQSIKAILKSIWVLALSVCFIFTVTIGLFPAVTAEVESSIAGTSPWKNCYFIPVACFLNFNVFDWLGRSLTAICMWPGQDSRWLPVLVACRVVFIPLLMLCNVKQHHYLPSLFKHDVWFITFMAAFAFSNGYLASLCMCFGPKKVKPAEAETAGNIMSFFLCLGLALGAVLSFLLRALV
Experimental: Increasing concentrations of the test compounds were incubated for 30 minutes with 0.5 mg neuronal membrane protein together with 0.5 nM [^3 H]-NBTI in a Tris buffer (pH 7.4) at room temperature. The assays were quenched and membranes collected by rapid filtration. Filters were then solubilized and radioactivity determined by scintillation counting.

[3] = tested on: coronary endothelial cells; experiment: Inhibition of adenosine utilization in cell culture; type: cell-based; details: Endothelial cell, 1 μM [3H] adenosine, 15 minutes
Experimental: In this assay, endothelial cells were incubated with 5 μM or 50 μM of the test compound together with 1 μM [^3H] adenosine for 15 minutes. Inhibition of adenosine utilization was determined by measuring the concentration of extracellular adenosine by scintillation counting following separation by thin layer chromatography (TLC).

[4] = tested on: platelet aggregation in human whole blood; experiment: Inhibition of platelet aggregation in human whole blood; type: cell-based; details: Homo sapiens, Platelet, 10 min, 10 minutes at 37° C., 10 µM adenosine added, ADP (6-25 μM)
Experimental: Whole blood was drawn from healthy donors and collected in 0.1 vol. of sodium citrate to prevent coagulation. Platelet aggregation was measured by the impedance technique using a Whole Blood Aggregometer. The test compounds were incubated in whole blood for 10 minutes at 37° C. and 10 µM adenosine was added 5 minutes before eliciting aggregation. Aggregation was induced by addition of ADP (6-25 μM) at the minimum concentration inducing full aggregation in untreated controls.

[5] = target: T2, purified pig heart adenosine kinase (Sus scrofa, UniProt A0A5G2R0F5); experiment: Adenosine kinase activity; type: biochemical; details: 0.5 μM [U14C] adenosine, 1 mM ATP, 20 minutes at 37° C.
T2 construct: 0.1 μg of purified pig heart adenosine kinase; from tissue; host or cells: pig heart
Experimental: Inhibition of enzyme activity was determined using a 0.1 ml assay mixture containing 50 mM Tris-maleate, pH 7.0, 0.1% (w/v) BSA, 1 mM ATP, 1 mM MgCl2, 0.5 μM [U^14 C] adenosine (500 mCi/mmol) and 0.1 μg of purified pig heart adenosine kinase. Different concentrations of test compound were incubated in the assay mixture for 20 minutes at 37° C. From each reaction mixture, 20 μl portions were removed and spotted on 2^2 pieces of Whatman DE81 filter paper. The papers were then washed to remove [^14 C] adenosine in 1 mM ammonium formate followed by deionized water and finally 95% ethanol. The papers were dried, and [^14C] AMP measured by scintillation counting. Activities were determined from the amount of [^14C] AMP formed.

ischemic rat hearts = experiment: Rat heart ischemia model: tissue adenosine levels; type: in vivo; details: intraperitoneal; hearts excised after 60 minutes, incubated 60 minutes at 37° C.
Experimental: Male rats were injected intraperitonealy with either the AICA riboside analog, AICA riboside or saline, as a control. After 60 minutes, the hearts were excised and incubated at 37° C. for a further 60 minutes. Tissue extracts were prepared and analyzed for adenosine by high performance liquid chromatography (HPLC).

[6] = tested on: longitudinal muscle from the guinea pig ileum; experiment: Inhibition of stimulated contraction in isolated ileum; details: electrically stimulated guinea pig ileum muscle
From the text: These are detailed in Table II.

T2 sequence (A0A5G2R0F5 1-362): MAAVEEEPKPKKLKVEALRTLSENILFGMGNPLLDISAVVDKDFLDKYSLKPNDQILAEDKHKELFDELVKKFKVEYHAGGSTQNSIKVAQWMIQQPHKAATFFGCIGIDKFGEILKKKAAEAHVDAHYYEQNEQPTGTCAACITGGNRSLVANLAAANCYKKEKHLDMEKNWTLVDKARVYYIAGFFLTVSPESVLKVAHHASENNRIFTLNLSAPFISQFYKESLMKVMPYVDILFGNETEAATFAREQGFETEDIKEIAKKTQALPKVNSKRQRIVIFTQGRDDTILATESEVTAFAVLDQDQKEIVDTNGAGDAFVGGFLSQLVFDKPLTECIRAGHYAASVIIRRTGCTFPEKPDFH

Compound: CC(=O)Oc1ccccc1C(=O)O [Aspirin]
Odds Ratio for mortality (multivariate) ([1]; Aspirin use (admission)): 1.46
Odds Ratio for mortality (multivariate) ([1]; Aspirin use (prior to surgery)): 0.77
Odds Ratio for mortality (multivariate) ([1]; Aspirin use following revascularization): 0.27
Odds Ratio for mortality (multivariate) ([1]; Discontinuation of aspirin use): 1.04
Length of hospitalization ([1]; aspirin group, 11.32±9.44 without): 9.57±7.14
patients who died within 12 hours of surgery ([1]; aspirin group, 25 patients in the control group): none
patients who died within 48 hours of surgery ([1]; aspirin group, 42 patients in the control group): one
risk of dying during hospitalization ([1]; aspirin within 48 hours of revascularization, 5.9% without): 1.4%
non-fatal ischemic complications (heart, brain, kidney or gastrointestinal tract) ([1]; aspirin within 48 hours of revascularization, 24.5% without): 13.6%
reduction in mortality ([1]; first use of aspirin 48 hours after surgery, not significant (P=0.534)): 15%

melting point: 131 to 135 °C
EC50 [2]: 48 µM
Compound: Nc1c(C(=O)Nc2ccccc2Cl)ncn1C1OC(CO)C(O)C1O [Compound No. 64 (1-519), 5-Amino-1-β-D-ribofuranosylimidazole-4-N-(2-chlorophenyl)carboxamide]

Compound: Nc1c(C(=O)NCc2ccc([N+](=O)[O-])cc2)ncn1C1OC(CCl)C(O)C1O (stereo not shown) [51 (1-466)]
melting point: 174 to 176 °C
inhibition at 5 µM [3]: 27 ± 2%
inhibition at 50 µM [3]: 65 ± 2%
IC50 [4]: 193 µM

IC50 [5]: 23 µM
Compound: C[C@H]1O[C@@H](n2c(S)nc(C(N)=O)c2N)[C@H](O)[C@@H]1O [Compound No. 67 (1-535), 5-Amino-2-thio-1-βD-(5 deoxyribofuranosyl)imidazole-4-carboxamide]

Compound: Nc1c(C(=O)NN2CCCCC2)ncn1[C@@H]1O[C@H](CO)[C@@H](O)[C@H]1O [Compound No. 36 (1-207), 5-amino-4-(1-piperidinocarbamoyl)-1-β-D-ribofuranosylimidazole]
Tissue Adenosine Levels (% Increase vs. Saline) (ischemic rat hearts): 34%

Compound: CC(=O)CC(c1ccccc1)c1c(O)c2ccccc2oc1=O (stereo not shown) [Warfarin/coumadin]
Odds Ratio for mortality (multivariate) ([1]; Warfarin/coumadin over the week prior to revascularization): 2.00

melting point: 214 to 216 °C (dec.)
EC50 [2]: 60 µM
Compound: Nc1c(C(=O)Nc2ccc(Br)cc2)ncn1C1OC(CO)C(O)C1O [Compound No. 55 (1-484), 5-Amino-1-β-D-ribofuranosylimidazole-4-N-(4-bromophenyl)carboxamide]

IC50 [5]: 17 µM
Compound: NC[C@H]1O[C@@H](n2c(S)nc(C(N)=O)c2N)[C@H](O)[C@@H]1O [Compound No. 70 (1-551), 5-Amino-2-thio-1-(5-amino-5-deoxy-β-D-ribofuranosyl)imidazole-4-carboxamide]

melting point: 227 to 229 °C
EC50 [2]: 80 µM
Compound: Nc1c(C(=O)Nc2ccc(I)cc2)ncn1C1OC(CO)C(O)C1O [Compound No. 57 (1-488), 5-Amino-1-β-D-ribofuranosyl-imidazole-4-N-(4-iodophenyl) carboxamide]

IC50 [6]: 400 µM
Compound: Nc1c(C(=O)NC2CC2)ncn1[C@@H]1O[C@H](CO)[C@@H](O)[C@H]1O [Compound No. 12 (1-232), 5-Amino-1-beta-D-ribofuranosylimidazole-4-N-(cyclopropyl)carboxamide]
Tissue Adenosine Levels (% Increase vs. Saline) (ischemic rat hearts): 29%

melting point: 128 to 129 °C
Compound: CC(=O)OC[C@H]1O[C@@H](c2nc(C(N)=O)c(N)[nH]2)[C@H](OC(C)=O)[C@@H]1OC(C)=O [Compound No. 2 (1-111), 5-Amino-(2,3,5-tri-O-acetyl-beta-D-ribofuranosyl)imidazole-4-carboxamide]

Compound: NC(=O)c1nc(S)n([C@@H]2O[C@H](CO)[C@@H](O)[C@H]2O)c1N [27 (1-395), 5-amino-2-thio-1-β-D-ribofuranosyl imidazole-4-carboxamide]
melting point: 205 to 208 °C
IC50 ([6]; Cavia porcellus): 500 µM
IC50 [4]: 950 µM
IC50 [5]: 8 µM
EC50 [2]: 344 µM

IC50 ([6]; Cavia porcellus): 60 µM
IC50 [4]: 90 µM
EC50 [2]: 100 µM
Compound: Nc1c(C(=O)NCc2ccc(Cl)cc2)ncn1C1OC(CO)C(O)C1O [Compound No. 29 (1-349), 5-amino-1-β-D-ribofuranosylimidazole-4-N-[(4-Chlorophenyl)methyl]carboxamide]
inhibition at 5 µM [3]: 41 ± 11%
inhibition at 50 µM [3]: 67 ± 8%
